PMC5794799, “Kaempferol mitigates Endoplasmic Reticulum Stress Induced Cell Death by targeting caspase 3/7” (Scientific Reports, 2018)

Biological target: T1, caspase-3 (Homo sapiens, UniProt P42574)
T1 construct: gene CASP3; recombinant active caspase-3 enzyme
T1 sequence (P42574 29-175): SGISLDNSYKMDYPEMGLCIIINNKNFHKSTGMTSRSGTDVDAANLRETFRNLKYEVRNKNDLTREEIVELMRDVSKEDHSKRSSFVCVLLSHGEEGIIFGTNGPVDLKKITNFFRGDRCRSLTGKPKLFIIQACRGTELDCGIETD
T1 sequence (P42574 176-277): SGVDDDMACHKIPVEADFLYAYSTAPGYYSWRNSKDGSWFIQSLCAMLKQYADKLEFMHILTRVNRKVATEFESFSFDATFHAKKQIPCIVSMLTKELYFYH
Experiment: recombinant caspase-3 activity assay with luminogenic Z-DEVD-aminoluciferin (Caspase-Glo […]), dose response
Type: biochemical

Compound: O=c1c(O)c(-c2ccc(O)cc2)oc2cc(O)cc(O)c12 [kaempferol]
- IC50: 5.65 µM
